{"source": "patent US20070270501A1", "about": "“Medicaments for Treating Barrett's Eesophagus” (Medical Research Council, priority 2004, published 2007)", "key": {"RARs": {"molecular_target": "RARs", "details": "pan-RAR antagonist; read-out: Kd for binding to RARs; cited from earlier work"}, "[1]": {"tested_on": "retinoid X receptor (RXR)", "details": "cited from earlier work"}, "[2]": {"tested_on": "CYP26A1 in squamous cell line (NES)", "assay": "RT-PCR of CYP26A1 expression in squamous cells", "assay_type": "cell-based", "details": "squamous cells / normal squamous epithelium", "experimental": "Expression of CYP26A1 in Barrett's (BAR, Qhtert) and squamous cell line (NES) is examined by RT-PCR. […] The control when nil is added is denoted by N. The LRAT is the enzyme for retinyl ester formation from excessive retinol."}, "[3]": {"tested_on": "Barrett's oesophagus biopsies", "assay": "Ex vivo organ culture of Barrett's oesophagus biopsies with citral", "assay_type": "cell-based, human"}, "RAR": {"tested_on": "RAR", "details": "cited from earlier work"}, "[4]": {"tested_on": "squamous oesophageal biopsies", "assay": "Ex vivo organ culture of squamous oesophageal biopsies with retinoic acid"}, "[5]": {"details": "citral transformed tissue compared with native counterpart"}, "[6]": {"details": "retinoic acid transformed tissue compared with native counterpart"}}, "note": "Entries after “also recorded” stand apart in the source; their conditions may differ."}
{"smiles": "CCc1ccc(C2=CC(C)(C)Sc3ccc(C#Cc4ccc(C(=O)O)cc4)cc32)cc1", "note": "[AGN194310]", "values": [{"measurement": "Kd", "setting": "RARs", "result": 2.5, "unit": "nM"}]}
{"smiles": "CCCN1c2ccccc2N=C(c2ccc(C(=O)O)cc2)c2cc3c(cc21)C(C)(C)CCC3(C)C", "note": "[HX603]", "values": [{"measurement": "RXR antagonistic activity", "setting": "[1]", "result": "selective antagonistic activity"}]}
{"smiles": "CC(C)=CCCC(C)=CC=O", "note": "[citral, 3,7-dimethyl-2,6-octadienal]", "values": [{"measurement": "CYP26A1 expression / regulation", "setting": "[2]", "result": "depression of CYP26A1 activity; also recorded: down-regulated"}, {"measurement": "Barrett's explants with squamous phenotype", "setting": "[3]; after 48 h citral in culture, 5/10 explants", "result": 50, "unit": "%"}, {"measurement": "BrdU incorporation", "setting": "[3]; [5]", "result": "lack of BrdU incorporation"}, {"measurement": "Ki-67 staining", "setting": "[3]; [5]", "result": "reduced Ki-67 staining"}, {"measurement": "cytokeratin expression (immunohistochemistry)", "setting": "[3]; citral treated Barrett's explants, 48 h", "result": "expression of CK13 and CK14, but not CK8/18"}]}
{"smiles": "CC1(C)CCC(C)(C)c2cc3c(cc21)CCc1c(-c2ccc(C(=O)O)cc2)cn(Cc2cccnc2)c1-3", "note": "[compound 31, 4-[4,5,7,8,9,10-hexahydro-7,7,10,-10-tetramethyl-1-(3-pyridylmethyl)anthra[1,2-b]pyrrol-3-yl]benzoic acid]", "values": [{"measurement": "effectiveness of RAR antagonism", "setting": "RAR", "result": "most effective"}]}
{"smiles": "CC1(C)CCC(C)(C)c2cc3c(cc21)SCc1c(-c2ccc(C(=O)O)cc2)cn(Cc2cccnc2)c1-3", "note": "[compound 40, 4-[4,5,7,8,9,10-hexahydro-7,7,10,10-tetramethyl-1-(3-pyridylmethyl)-5-thiaanthral[1,2-b]pyrrol-3-yl]benzoic acid]", "values": [{"measurement": "effectiveness of RAR antagonism", "setting": "RAR", "result": "most effective"}]}
{"smiles": "CC1(C)CCC(C)(C)c2cc3c(cc21)CCc1c(-c2ccc(C(=O)O)cc2)nn(Cc2cccnc2)c1-3", "note": "[compound 55, 4-[4,5,7,8,9,10-hexahydro-7,7,10,10-tetramethyl-1-(3-pyridylmethyl)anthra[2,1-d]pyrazol-3-yl]benzoic acid]", "values": [{"measurement": "effectiveness of RAR antagonism", "setting": "RAR", "result": "most effective"}]}
{"smiles": "CC1=C(/C=C/C(C)=C/C=C/C(C)=C/C(=O)O)C(C)(C)CCC1", "note": "[retinoic acid, all-trans retinoic acid]", "values": [{"measurement": "CYP26A1 expression / regulation", "setting": "[2]", "result": "not induced"}, {"measurement": "squamous tissue with glandular phenotype (villiform surface and mucosal glands)", "setting": "[4]; after 48 hours retinoic acid in culture, 8/31 explants", "result": 26, "unit": "%"}, {"measurement": "epithelial markers by RT-PCR", "setting": "[4]; full thickness squamous epithelial biopsy (NE)", "result": "induced the glandular epithelial markers CK 8/18 and 7 with reduction of the squamous epithelial CK13"}, {"measurement": "cytokeratin expression (immunohistochemistry)", "setting": "[4]; retinoic acid induced glandular tissue, 48 hours", "result": "expresses cytokeratins CK8/18 and CK7 but not CK13"}, {"measurement": "BrdU incorporation", "setting": "[4]; [6]", "result": "lack of BrdU incorporation"}, {"measurement": "Ki-67 staining", "setting": "[4]; [6]", "result": "reduced Ki-67 staining"}, {"measurement": "p21 expression", "setting": "[4]; retinoic acid treated squamous tissue", "result": "enhanced p21 expression"}, {"measurement": "villin (immunohistochemistry)", "setting": "[4]; retinoic acid treated tissue", "result": "strongly induced"}]}
{"smiles": "CC1=C(/C=C/C(C)=C/C=C/C(C)=C/CO)C(C)(C)CCC1", "note": "[retinol]", "values": [{"measurement": "CYP26A1 expression / regulation", "setting": "[2]", "result": "not induced"}]}
